Measurements from the NIST ThermoML archive (doi:10.1021/je800747v).

Experiment: xn = mol fraction of the nth substance listed
Conditions: 101 kPa, Liquid, Optical method

COCCOC [1,2-dimethoxyethane] + CCCCCCC
x1 = 0
Conditions	binary diffusion coefficient [m2/s]
276.64 K	5.24e-09
277.73 K	5.28e-09
281.59 K	5.31e-09
284.32 K	5.35e-09
287.28 K	5.4e-09
289.59 K	5.44e-09
292.83 K	5.51e-09
294.95 K	5.57e-09
296.37 K	5.63e-09
298.46 K	5.69e-09
301.29 K	5.79e-09
304.98 K	5.89e-09
306.86 K	5.98e-09
310.67 K	6.13e-09
312.41 K	6.3e-09
316.09 K	6.48e-09
319.27 K	6.62e-09
322.81 K	6.79e-09
325.36 K	6.94e-09
328.78 K	7.3e-09
332.63 K	7.59e-09

COCCOCCOC [2,5,8-trioxanonane] + CCCCCCC
x1 = 0
Conditions	binary diffusion coefficient [m2/s]
276.64 K	9.42e-10
277.73 K	9.48e-10
281.59 K	9.51e-10
284.32 K	9.58e-10
287.28 K	9.76e-10
289.59 K	9.87e-10
292.83 K	1e-09
294.95 K	1.02e-09
296.37 K	1.05e-09
298.46 K	1.07e-09
301.29 K	1.08e-09
304.98 K	1.12e-09
306.86 K	1.14e-09
310.67 K	1.18e-09
312.41 K	1.23e-09
316.09 K	1.26e-09
319.27 K	1.31e-09
322.81 K	1.37e-09
325.36 K	1.43e-09
328.78 K	1.48e-09
332.63 K	1.53e-09

CCCCCCC [heptane] + CCO
x2 = 0
Conditions	binary diffusion coefficient [m2/s]
276.64 K	7.57e-09
277.73 K	7.61e-09
281.59 K	7.64e-09
284.32 K	7.7e-09
287.28 K	7.75e-09
289.59 K	7.79e-09
292.83 K	7.84e-09
294.95 K	7.9e-09
296.37 K	7.94e-09
298.46 K	8.07e-09
301.29 K	8.19e-09
304.98 K	8.22e-09
306.86 K	8.37e-09
310.67 K	8.47e-09
312.41 K	8.58e-09
316.09 K	8.71e-09
319.27 K	8.91e-09
322.81 K	9.17e-09
325.36 K	9.22e-09
328.78 K	9.36e-09
332.63 K	9.5e-09

[Cl-].[K+] [potassium chloride] + O
Conditions	binary diffusion coefficient [m2/s]
298.15 K, x1 = 0	1.86e-09
